From patent US4910296A, “Medicaments containing alpha 1 thymosin fragments and having an immunostimulant action, and fragments of alpha 1 thymosin” (priority 1980, dated 1990)
Like-named read-outs stand apart in the source and are kept apart here. Residues, ends and D or L forms follow the SMILES beside them. No end group written: not given here.

Experiments:
[1] = system: human peripheral lymphocytes; format: cell-based; conditions: for stimulation (+) / inhibition (-) of mixed lymphocyte culture: 1 μg fragment per ml, not blocked, culture without addition = 0%; for Stimulation (%) of allogenic mixed culture: 1 microgram thymosin α1 per ml
From the text: (§1) The immunological test methods used were the E-rosette test according to Wara, Ammann et al. (N.Y. Acad. Sci. 249 (1975) 308 and N. Engl. J. Med. 292 (1975) 70) and the method of mixed lymphocyte culture, both methods involving additional inhibition of cellular RNS polymerase by alpha-amanitin. The E-rosette test is based on the fact that the percentage of E-rosette forming cells in peripheral human blood is a measure of the content of fully mature T-cells, which form with sheep's red blood cells characteristic aggregates which can be counted under the microscope.
The test in mixed lymophocyte cultures is based on the fact that T-cells are made to proliferate by stimulation with allogenic antigens. For the performance of the test, the lymphocytes of donor A ("responder") are incubated with those of donor B ("stimulator") for 4 to 5 days. Then ^3 H-thymidin is added and the rate of proliferation is measured on the basis of the increasing radioactivity of the cell culture due to the installation of the radioactive material. Since both populations A and B might be made to proliferate, resulting in an unclear effect, population B is blocked with mitomycin C in all metabolical activities. This test is routinely used before organ transplants to determine the immunological compatibility of donor and receiver tissues.

[2] = system: peripheral human lymphocytes; format: cell-based; conditions: for E-rosette number (%): cells blocked with α-amanitin = 0%, normal level without any addition = 100%, at optimum concentration; for Optimum concentr.: concentration giving the stated E-rosette number; for Relative number of E-rosettes (%): after inhibition with α-amanitin
From the text: as §1
For the performance of the E-rosette test, peripheral human lymphocytes are isolated by a gradient centrifugation. Their RNS polymerase is blocked by alpha-amanitin. […] This value is taken as 100% in a relative numerical scale, and after the Alpha-amanitin blockage it is taken to be 0%; see Table XII.

Molecule	stimulation (+) / inhibition (-) of mixed lymphocyte culture ([1]; cell pair AB)	stimulation (+) / inhibition (-) of mixed lymphocyte culture ([1]; cell pair CD)	stimulation (+) / inhibition (-) of mixed lymphocyte culture ([1]; cell pair DC)	E-rosette number (%) [2]	Optimum concentr. [2]	further results
C[C@H](NC(=O)[C@@H](N)CCC(=O)O)C(=O)N[C@@H](CCC(=O)O)C(=O)N[C@@H](CC(N)=O)C(=O)O [V] (H-EAEN-OH)	+223%	+45%	+37%	42%	113 μm	
Ac-SDAAVDTSSEIT [IX]	-74%	-63%	-77%	40%	4 μm	
KDAAVD [Ia]	-8%	-73%	-31%	93%	16 μm	stimulation (+) / inhibition (-) of mixed lymphocyte culture ([1]; cell pair BA): -15%
KEVVEEAEN [VI]	+153%	+57%		16%	10 μm	
TKDLKEKKEVVEEAEN [VII]				41%	6 μm	
TSSEIT [II]		-53%	+30%	29%	80 μm	stimulation (+) / inhibition (-) of mixed lymphocyte culture ([1]; cell pair BA): -18%
thymosin α1 (SDAAVDTSSEITTKDLKEKKEVVEEAEN; ends and bridges not checked; UniProt P06454 2-29, looked up) [Thymosin (synthetic), parent substance, totally synthetic thymosin α1, 28 amino acids, analytically pure, reference compound]				100%	1.6 μm	Stimulation (%) of allogenic mixed culture ([1]; cell pair AB, culture inhibited with 1 microgram α-amanitin per ml): +86%; Stimulation (%) of allogenic mixed culture ([1]; cell pair AB, culture not inhibited, stimulator cells blocked with mitomycin): +20%; Stimulation (%) of allogenic mixed culture ([1]; cell pair AD, culture inhibited with 1 microgram α-amanitin per ml): +37%; Stimulation (%) of allogenic mixed culture ([1]; cell pair AD, culture not inhibited): +4%; Stimulation (%) of allogenic mixed culture ([1]; cell pair BA, culture inhibited with 1 microgram α-amanitin per ml): +47%; Stimulation (%) of allogenic mixed culture ([1]; cell pair BA, culture not inhibited): +27%; Stimulation (%) of allogenic mixed culture ([1]; cell pair BD, culture inhibited with 1 microgram α-amanitin per ml): +51%; Stimulation (%) of allogenic mixed culture ([1]; cell pair BD, culture not inhibited): +45%; Stimulation (%) of allogenic mixed culture ([1]; cell pair DA, culture inhibited with 1 microgram α-amanitin per ml): +0%; Stimulation (%) of allogenic mixed culture ([1]; cell pair DA, culture not inhibited): +44%; Stimulation (%) of allogenic mixed culture ([1]; cell pair DB, culture inhibited with 1 microgram α-amanitin per ml): +1550%; Stimulation (%) of allogenic mixed culture ([1]; cell pair DB, culture not inhibited): +27%; Relative number of E-rosettes (%) ([2]; 0.25 μg per culture): 39%; Relative number of E-rosettes (%) ([2]; 0.50 μg per culture): 100%; Relative number of E-rosettes (%) ([2]; 1.00 μg per culture): 64%; Relative number of E-rosettes (%) ([2]; 2.50 μg per culture): 57%; Relative number of E-rosettes (%) ([2]; 5.00 μg per culture): 33%
